Some test systems named below: LOX IMVI melanoma; HCT-116 colon; NCI-H23 lung; EKVX NSCLC; A498 renal; M14 melanoma; SK-MEL-5 melanoma; DU-145 prostate; SNB-19 CNS; SR leukemia.
What all share (experiment): NCI-60 cell line screen, 48 h

Data on 23 compounds can be found in PubChem BioAssay (NCI).

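Exposure lasted 48 hours, with cells grown in 96-well plates and compounds tested at five concentrations. Here, GI50 denotes the concentration required for 50% inhibition of growth. The concentration for full growth arrest is given as TGI.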

As for `Cn1c(=O)c2[nH]c(CCCCC(=O)O)nc2n(C)c1=O`, the TGI in the assay with LOX IMVI melanoma, with HCT-116 colon, with NCI-H23 lung, in the assay on EKVX NSCLC, with A498 renal and in the assay on M14 melanoma was > 100 µM throughout. Moreover, the TGI in the assay on SK-MEL-5 melanoma, in the assay with DU-145 prostate and in the assay with SNB-19 CNS was > 100 µM each time.

`NC(CCC(=O)O)C(=O)N1CCN(c2nc(N3CCCC3)c3nc(Cl)c(NCc4ccccc4)nc3n2)CC1` (centres undefined): the TGI in the assay with LOX IMVI melanoma was determined as 32.3 µM; in the assay on SR leukemia, 17.5 µM; in the assay on HCT-116 colon, 28.4 µM; with NCI-H23 lung, 32.3 µM; in the assay with EKVX NSCLC, 27.7 µM; in the assay on M14 melanoma, 22.6 µM. Besides, the figures for the TGI in the assay with SK-MEL-5 melanoma, in the assay with DU-145 prostate and in the assay on SNB-19 CNS were 20.9 µM, 21.9 µM and 34.4 µM, respectively.

For `N#Cc1nc(C2=C(Cl)c3ccccc3OC2)[nH]c1C#N`, the TGI is 45.6 µM in the assay with LOX IMVI melanoma; 69.1 µM in the assay with NCI-H23 lung; > 100 µM in the assay on EKVX NSCLC; 66.1 µM with A498 renal; 34.2 µM in the assay on M14 melanoma; 51.1 µM in the assay with SK-MEL-5 melanoma. For the same compound, the TGI in the assay with SNB-19 CNS is > 100 µM.

For `C/C=C(/C)C(=O)O[C@H]1C[C@@H]2[C@@H](O)c3occ(C)c3C[C@]2(C)[C@@H](C)C1`, the TGI with LOX IMVI melanoma worked out at 32.8 µM; with SR leukemia, 43.8 µM; in the assay on HCT-116 colon, 28.5 µM; with NCI-H23 lung it was 33.1 µM; in the assay on EKVX NSCLC it was 30.5 µM; in the assay on M14 melanoma, 29.9 µM. Further, the figures for the TGI in the assay on SK-MEL-5 melanoma, in the assay with DU-145 prostate and in the assay with SNB-19 CNS were 22.6 µM, 28.2 µM and 31.5 µM, respectively.

As for `O=C(Cc1ccccc1)N/N=C/c1ccccc1O`, the TGI was > 100 µM in the assay with LOX IMVI melanoma; > 100 µM with SR leukemia; > 100 µM in the assay on HCT-116 colon; > 100 µM in the assay with NCI-H23 lung; > 100 µM in the assay on EKVX NSCLC; 22.8 µM in the assay with M14 melanoma. Besides, the figures for the TGI in the assay on SK-MEL-5 melanoma, in the assay with DU-145 prostate and in the assay with SNB-19 CNS were 49.4 µM, > 100 µM and > 100 µM, respectively.

Consider `Cc1ccc(S(=O)(=O)OC(c2ccc(Cl)cc2Cl)C2OC(=O)c3ccccc32)cc1` (centres undefined), for which the TGI with LOX IMVI melanoma, in the assay on SR leukemia, with HCT-116 colon, with NCI-H23 lung, in the assay with EKVX NSCLC and in the assay on M14 melanoma was > 100 µM in each case. Further, the TGI in the assay on SK-MEL-5 melanoma and in the assay on SNB-19 CNS was > 100 µM each time.

In the case of `CCOP(=O)(O)C1C(CO)OC(n2ccc(=O)[nH]c2=O)C1O` (centres undefined), the TGI with LOX IMVI melanoma, in the assay on SR leukemia, in the assay on HCT-116 colon, with EKVX NSCLC, in the assay on A498 renal and in the assay with M14 melanoma was > 100 µM each time. Also, the TGI in the assay with SK-MEL-5 melanoma and in the assay with SNB-19 CNS was > 100 µM each time.

`O=C1O/C(=C(/Br)c2ccc(Cl)c(Cl)c2)c2ccccc21`: the TGI with LOX IMVI melanoma, in the assay with SR leukemia, in the assay with HCT-116 colon, with NCI-H23 lung, in the assay with EKVX NSCLC and in the assay with M14 melanoma was > 10 µM each time. The TGI in the assay with SK-MEL-5 melanoma, in the assay with DU-145 prostate and with SNB-19 CNS was > 10 µM throughout.

Regarding `O=C1C(Cl)C(c2cccc(Cl)c2)N1c1ccc(-n2c(=S)[nH]c3ccccc3c2=O)cc1` (centres undefined), the TGI in the assay on LOX IMVI melanoma was 42.5 µM; with SR leukemia it was 30 µM; in the assay on HCT-116 colon, 85.3 µM; with NCI-H23 lung, 49.7 µM; with EKVX NSCLC it was > 100 µM; in the assay with M14 melanoma it was 58.7 µM. The TGI is 31.4 µM in the assay with SK-MEL-5 melanoma, > 100 µM in the assay with DU-145 prostate and 16.3 µM with SNB-19 CNS.

Take `NC(=S)Nc1ccc(S(=O)(=O)Nc2ccc(S(N)(=O)=O)cc2)cc1`: the TGI in the assay with LOX IMVI melanoma, with HCT-116 colon, in the assay on NCI-H23 lung, in the assay on EKVX NSCLC, in the assay on A498 renal and with M14 melanoma was > 100 µM each time. Also, the TGI with SK-MEL-5 melanoma, in the assay with DU-145 prostate and in the assay with SNB-19 CNS was > 100 µM each time.

Consider `C=C(C)C(=O)OC1CCC2(C)C(CCC3C2CCC2(C)C(c4ccc(=O)oc4)CC4OC432)C1` (centres undefined), for which the TGI is 24.1 µM in the assay on LOX IMVI melanoma; 19 µM with HCT-116 colon; 19.3 µM in the assay on NCI-H23 lung; 11 µM in the assay with EKVX NSCLC; 21.8 µM with A498 renal; 19.1 µM with SK-MEL-5 melanoma. This compound showed a TGI in the assay with SNB-19 CNS of 72.5 µM.

Turning to `COc1cc(OC)c2c(=O)c(OC)c(-c3ccc4c(c3)OCO4)oc2c1`, the TGI in the assay on LOX IMVI melanoma is 48.8 µM; in the assay on HCT-116 colon, > 100 µM; in the assay with NCI-H23 lung it was 64 µM; in the assay on EKVX NSCLC it was > 100 µM; in the assay with A498 renal, 57.1 µM; in the assay on M14 melanoma it was > 100 µM. Moreover, the figures for the TGI in the assay on SK-MEL-5 melanoma, with DU-145 prostate and with SNB-19 CNS were > 100 µM, > 100 µM and 62.7 µM, respectively.

On to `Clc1ccccc1/C=C/c1cscn1`, for which the TGI in the assay with LOX IMVI melanoma, in the assay on SR leukemia, with HCT-116 colon, in the assay with NCI-H23 lung, in the assay with EKVX NSCLC and in the assay with A498 renal was > 100 µM in each case. For the same compound, the TGI with M14 melanoma and in the assay with SNB-19 CNS was > 100 µM each time.

With `CCN(CC)CC(=O)O[C@]1(CC)C(=O)OCc2c1cc1n(c2=O)Cc2cc3ccccc3nc2-1`, the TGI in the assay on LOX IMVI melanoma is 0.177 µM; in the assay with HCT-116 colon, 0.352 µM; with NCI-H23 lung, 0.13 µM; with EKVX NSCLC it was > 100 µM; with A498 renal, 0.256 µM; in the assay with M14 melanoma it was 0.318 µM. Moreover, the TGI is 0.171 µM with SK-MEL-5 melanoma, 0.21 µM with DU-145 prostate and 11.3 µM with SNB-19 CNS.

`COc1ccc(CCN2CCN(CCc3ccc(OC)cc3)CC2)cc1`: the TGI in the assay on LOX IMVI melanoma, with HCT-116 colon, in the assay with NCI-H23 lung, in the assay with EKVX NSCLC, in the assay on A498 renal and in the assay on M14 melanoma was > 100 µM in each case. Moreover, the TGI in the assay with SK-MEL-5 melanoma, in the assay with DU-145 prostate and with SNB-19 CNS was > 100 µM in each case.

With `O=C1C=CC=C/C1=C1\N=C(c2ccccc2OCC(=O)c2ccc(Br)cc2)SS1`, the TGI in the assay on LOX IMVI melanoma, in the assay on HCT-116 colon, with NCI-H23 lung, with EKVX NSCLC, in the assay on A498 renal and with M14 melanoma was > 100 µM in each case. Besides, the TGI in the assay with SK-MEL-5 melanoma, in the assay on DU-145 prostate and with SNB-19 CNS was > 100 µM in each case.

For the compound `Cc1[nH]n(C2=NCCN2)c(=O)c1Cc1ccccc1`, the TGI in the assay on LOX IMVI melanoma, in the assay with SR leukemia, in the assay with HCT-116 colon, in the assay on NCI-H23 lung, in the assay with EKVX NSCLC and in the assay on A498 renal was > 100 µM in each case. The TGI in the assay with M14 melanoma, in the assay on SK-MEL-5 melanoma and in the assay with SNB-19 CNS was > 100 µM in each case.

For `Cc1ccc(N=Nc2c(C)c(C#N)c(=S)n(C3OC(CO)C(O)C(O)C3O)c2C)cc1` (centres undefined), the TGI in the assay on LOX IMVI melanoma is 45 µM; with SR leukemia, > 100 µM; in the assay with HCT-116 colon it was 62.9 µM; with NCI-H23 lung it was > 100 µM; with M14 melanoma it was 41.7 µM; with SK-MEL-5 melanoma it was 35 µM. Also, the TGI in the assay on DU-145 prostate and with SNB-19 CNS was > 100 µM each time.

On to `COc1cc(/C=C2\CCCC3=C2NC(C)=NC3c2cc(OC)c(OC)c(OC)c2)cc(OC)c1OC` (centres undefined), for which the GI50 was 0.436 µM in the assay on SR leukemia, 0.46 µM with HCT-116 colon and 1.53 µM in the assay with DU-145 prostate. Further, the TGI in the assay on SR leukemia was 7.66 µM; in the assay on HCT-116 colon, 1.76 µM; with DU-145 prostate it was > 100 µM.

Regarding `COc1ccc(C2=Nn3c(nnc(Cc4ccc(Cl)cc4)c3=O)SC2)cc1`, the TGI in the assay on LOX IMVI melanoma was > 100 µM; in the assay with HCT-116 colon, > 100 µM; in the assay on NCI-H23 lung it was > 100 µM; in the assay on EKVX NSCLC, > 100 µM; in the assay with A498 renal it was > 100 µM; in the assay on M14 melanoma, 91 µM. Further, the TGI with SK-MEL-5 melanoma, with DU-145 prostate and with SNB-19 CNS was > 100 µM throughout.

Turning to `N#C/C(N)=C(\C#N)N=CN`, the TGI with LOX IMVI melanoma, with SR leukemia, with HCT-116 colon, in the assay with NCI-H23 lung, in the assay with EKVX NSCLC and in the assay on M14 melanoma was > 100 µM each time. Further, the TGI with SK-MEL-5 melanoma and with DU-145 prostate was > 100 µM throughout.

In the case of `O=C(O)Cc1cccc2c1OC(c1ccccc1)C(Cl)(C(=O)c1ccccc1)C2=O` (centres undefined), the TGI in the assay on LOX IMVI melanoma was found to be 29.2 µM; in the assay on SR leukemia, 60.6 µM; in the assay with HCT-116 colon it was 29.4 µM; in the assay on NCI-H23 lung, 33.1 µM; in the assay with EKVX NSCLC, 50 µM; in the assay with SK-MEL-5 melanoma, 28.6 µM. Moreover, the TGI in the assay with DU-145 prostate is 65.3 µM; with SNB-19 CNS it was > 100 µM.

Consider `C=C(CC[C@@H](C)[C@H]1CC[C@@]2(C)C3=C(CC[C@]12C)[C@@]1(C)CC[C@H](O)[C@@H](C)C1CC3)C(C)C` (some centres undefined), for which the TGI is 2 µM in the assay on LOX IMVI melanoma; 2.71 µM in the assay on SR leukemia; 2.48 µM with HCT-116 colon; 2.51 µM in the assay on NCI-H23 lung; 2.42 µM in the assay with EKVX NSCLC; 2.58 µM in the assay with A498 renal. Further, the results for the TGI in the assay with M14 melanoma, in the assay with SK-MEL-5 melanoma and with SNB-19 CNS were 2.36 µM, 2.55 µM and 4.45 µM, respectively.
